The text below walks through data of ChEMBL document CHEMBL5512670 (J Med Chem, 2024).

Series [1] can be described thus: Lipophilicity, logD of the compound at pH 7.4. It counts as physicochemical. The note with it: buffer.
The nature of series [2]: Dissociation constant, pKa of the compound. It counts as physicochemical.
The nature of series [3]: AUC (0 to infinity) in Wistar rat at 1 mg/kg,po administration. It counts as ADME, organism-based. To be noted: in vivo.
Series [4] can be described thus: Clearance in Wistar rat plasma at 1 mg/kg,po administration. It counts as ADME, organism-based.
Series [5] can be described thus: Volume of distribution at steady state in Wistar rat at 1 mg/kg,po administration. It counts as ADME, organism-based. To be noted: in vivo.
Series [6] in a line: Half life in Wistar rat at 1 mg/kg,po administration. It counts as ADME, organism-based. To be noted: in vivo.
Series [7] is described as follows: Cmax in C57BL/6 mouse at 10 mg/kg,po administrated upto 24 hrs by LC-MS/MS analysis. It counts as ADME, organism-based. The note with it: in vivo.
Series [8] in a line: Cmax in C57BL/6 mouse at 50 mg/kg,po administrated upto 24 hrs by LC-MS/MS analysis. It counts as ADME, organism-based. To be noted: in vivo.
A short description of series [9]: Cmax in C57BL/6 mouse infected with Clostridioides difficile CD1264 at 10 mg/kg,po administrated upto 24 hrs by LC-MS/MS analysis. It counts as ADME, organism-based. The note with it: in vivo.
Series [10] can be described thus: Cmax in C57BL/6 mouse infected with Clostridioides difficile CD1264 at 50 mg/kg,po administrated upto 24 hrs by LC-MS/MS analysis. It counts as ADME, organism-based. The note with it: in vivo.
Series [11] in a line: Drug concentration in Wistar rat plasma at 50 mg/kg,po administration. It counts as ADME, organism-based. To be noted: in vivo.
A short description of series [12]: Oral bioavailability in Wistar rat plasma at 50 mg/kg administration. It counts as ADME, organism-based.
Series [13] is described as follows: AUC (0 to 24 hrs) in C57BL/6 mouse at 10 mg/kg,po administrated upto 24 hrs by LC-MS/MS analysis. It counts as ADME, organism-based. The note with it: in vivo.
Series [14] in a line: Clearance in Wistar rat blood at 1 mg/kg,po administration. It counts as ADME, organism-based.
The nature of series [15]: AUC (0 to 24 hrs) in C57BL/6 mouse at 50 mg/kg,po administrated upto 24 hrs by LC-MS/MS analysis. To be noted: in vivo. It counts as ADME, organism-based.
A short description of series [16]: AUC (0 to 24 hrs) in C57BL/6 mouse infected with Clostridioides difficile CD1264 at 10 mg/kg,po administrated upto 24 hrs by LC-MS/MS analysis. It counts as ADME, organism-based. To be noted: in vivo.
Series [17] is described as follows: AUC (0 to 24 hrs) in C57BL/6 mouse infected with Clostridioides difficile CD1264 at 50 mg/kg,po administrated upto 24 hrs by LC-MS/MS analysis. It counts as ADME, organism-based. To be noted: in vivo.
Series [18] can be described thus: Drug metabolism in human liver microsomes assessed as metabolite formation. It counts as ADME, Microsome.
Series [19] in a line: Drug metabolism in human Hepatocyte assessed as metabolite formation. It counts as ADME, cell-based. The note with it: hepatocytes.

In series [1], `O=C(O)c1cn(C2CC2)c2cc(N3CCC(O)(COc4ccc(N5C[C@H](CO)OC5=O)cc4F)CC3)c(F)cc2c1=O` [CADAZOLID] returned a logD of 1.2. The compound also yielded a pKa in series [2] of 6. The compound also returned an AUC(0-inf) in series [3] of 255 ng·h/mL. In addition, the CL/F in [4] came out at 65 mL/min/kg; in series [14], 96 mL/min/kg. In series [5], this compound showed a Vdss of 2 L/kg. In addition, the half-life in series [6] is 36 min. Also, the Cmax was determined as 3 ng/mL in series [7], 6 ng/mL in series [8], 12 ng/mL in series [9] and 10 ng/mL in [10]. In series [11], this compound showed a Cp of 1 ng/mL. The same compound gave a bioavailability in [12] of 0%. The AUC(0-t) at 24 h in series [13] is 9 ng·h/mL; in [15], 78 ng·h/mL; in series [16], 27 ng·h/mL; in series [17] it was 147 ng·h/mL. Further, the Drug metabolism result in series [18] and in series [19] was “Metabolite_Notdetected” each time.
